Source: PMC12198407, “Preclinical and first-in-human of purinostat mesylate, a novel selective HDAC I/IIb inhibitor, in relapsed/refractory multiple myeloma and lymphoma” (Signal Transduction and Targeted Therapy, 2025)
Entries after “also recorded” stand apart in the source; their conditions may differ.

Legend:
[1] = tested on: cMYC-KRAS12V plasmacytoma; experiment: cMYC-KRAS12V primary plasmacytoma (PCT) mouse model; type: in vivo, BALB/c mice
Protocol: (§1) The cMYC-KRAS12V-induced plasmacytoma mouse model in BALB/c (GemPharmatech Co., Ltd., Nanjing, China) was established as previously described.[33] On day 28 or 35 post bone marrow transplantation, recipients received various treatments. The 5TMM mouse model was established as previously described.[55] The 5TGM1-luc cells were intravenously injected into 6-week-old C57BL/KawRij mice (Harlan Co. Netherlands) with 2 × 10^6 cells per mouse. After three weeks, mice were treated with vehicle or PM 10 mg/kg. Serum Ca^2+ levels were monitored weekly for three weeks after the start of administration. Kaplan-Meier survival curves were generated for each treatment group. Additionally, the 5TMM mouse model studying PM’s effects on immune response and bone destruction involved randomizing mice into vehicle and PM (10 mg/kg) groups one week after inoculation. T cell subsets were analyzed by flow cytometry 24 h after a single dose and 1 month after vehicle or PM treatment. The mice were sacrificed after 1 month of treatment, and the bone destruction was detected by Micro-CT.

5TGM1-luc myeloma = experiment: 5TMM mouse model, survival and serum calcium; type: in vivo, C57BL/KawRij mice; design: serum calcium level: unit not given here; conditions: 10 mg/kg
Protocol: as §1

HDAC10 = HDAC10 (Homo sapiens, UniProt Q969S8); experiment: HDAC enzyme activity in vitro; type: biochemical
[2] = Phase I trial NCT05526313, safety and tolerability (adverse events, CTCAE 5.0)

Chain of HDAC10 (Q969S8 whole entry): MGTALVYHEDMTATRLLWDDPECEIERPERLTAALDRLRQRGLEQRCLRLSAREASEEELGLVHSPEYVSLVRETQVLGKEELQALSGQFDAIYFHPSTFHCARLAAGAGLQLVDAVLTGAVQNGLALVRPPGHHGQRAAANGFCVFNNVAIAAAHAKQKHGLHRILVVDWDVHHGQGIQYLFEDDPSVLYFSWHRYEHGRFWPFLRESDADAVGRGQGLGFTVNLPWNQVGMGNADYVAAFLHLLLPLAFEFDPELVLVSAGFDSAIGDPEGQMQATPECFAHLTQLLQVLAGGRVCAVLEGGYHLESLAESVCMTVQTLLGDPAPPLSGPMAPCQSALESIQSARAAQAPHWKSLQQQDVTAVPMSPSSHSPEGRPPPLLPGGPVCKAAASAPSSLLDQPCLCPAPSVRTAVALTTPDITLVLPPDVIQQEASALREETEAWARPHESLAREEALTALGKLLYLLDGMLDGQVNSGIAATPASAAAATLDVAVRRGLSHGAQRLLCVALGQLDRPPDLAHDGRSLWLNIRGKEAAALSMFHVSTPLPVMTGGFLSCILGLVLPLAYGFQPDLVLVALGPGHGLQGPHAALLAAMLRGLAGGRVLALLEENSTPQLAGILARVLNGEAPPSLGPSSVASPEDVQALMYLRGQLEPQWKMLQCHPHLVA

SMILES: CN(Cc1nc2c(N3CCOCC3)nc(-c3ccc(N)cc3)nc2n1C)c1ncc(C(=O)NO)cn1.CS(=O)(=O)O [PM, 2-(((2-(4-Aminophenyl)-9-methyl-6-(4-morpholinyl)-9H-purine-8-yl)methyl)methylamino)-N-hydroxy-5-pyrimidine-carboxamide Mesylate]
- median survival time (MST) ([1]; 5 mg/kg, vehicle 47 days): 68 days
- median survival time (MST) ([1]; more severe PCT model, from day 35, PM 10 mg/kg, regimens per Table S9): 59 days
- serum calcium level (5TGM1-luc myeloma; two weeks, vehicle 20.93): 8.972
- survival (5TGM1-luc myeloma; vehicle 50 days): 86 days
- IC50 (HDAC10): 1.1 nM
- dose-limiting toxicity (DLT) ([2]; 1.2–15 mg/m^2): no dose-limiting toxicities observed; also recorded: no dose-limiting toxicity (DLT) events occurred; also recorded: no arrhythmias or DLT were observed
- grade 5 events ([2]; 29 treated patients): no grade 5 events reported
- patients with grade 3–4 TEAEs ([2]; 29 treated patients): 25 (86.2%) n (%)
- COVID-19 ([2]; […]): 1(3.4) n (%)
- Investigations (SOC) ([2]; […]): 29(100.0) n (%)
- QRS axis abnormalities ([2]; […]): 1(3.4) n (%)
- ST segment abnormalities on ECG ([2]; […]): 5(17.2) n (%)
- ST-T segment changes on ECG ([2]; […]): 9(31.0) n (%)
- T wave abnormalities on ECG ([2]; […]): 9(31.0) n (%)
- abdominal discomfort ([2]; […]): 1(3.4) n (%)
- abdominal distension ([2]; […]): 4(13.8) n (%)
- abdominal pain ([2]; […]): 2(6.9) n (%)
- abnormal liver function ([2]; […]): 1(3.4) n (%)
- alopecia ([2]; […]): 1(3.4) n (%)
- anemia ([2]; […]): 20(69.0) n (%)
- angular cheilitis ([2]; […]): 1(3.4) n (%)
- appendicitis ([2]; […]): 1(3.4) n (%)
- arrhythmia ([2]; […]): 1(3.4) n (%)
- arthralgia ([2]; […]): 3(10.3) n (%)
- atrial tachycardia ([2]; […]): 1(3.4) n (%)
- backache ([2]; […]): 1(3.4) n (%)
- bacteremia ([2]; […]): 1(3.4) n (%)
- belching ([2]; […]): 1(3.4) n (%)
- bleeding gums ([2]; […]): 1(3.4) n (%)
- blood and lymphatic system diseases (SOC) ([2]; […]): 20(69.0) n (%)
- chill ([2]; […]): 1(3.4) n (%)
- conjunctival bleeding ([2]; […]): 1(3.4) n (%)
- constipation ([2]; […]): 1(3.4) n (%)
- cough ([2]; […]): 1(3.4) n (%)
- decreased blood fibrinogen ([2]; […]): 1(3.4) n (%)
- decreased lymphocyte count ([2]; […]): 16(55.2) n (%)
- decreased monocyte count ([2]; […]): 2(6.9) n (%)
- decreased neutrophil count ([2]; […]): 25(86.2) n (%)
- decreased platelet count ([2]; […]): 24(82.8) n (%)
- decreased white blood cell count ([2]; […]): 24(82.8) n (%)
- diarrhea ([2]; […]): 4(13.8) n (%)
- dizziness ([2]; […]): 13(44.8) n (%)
- duodenogastric reflux ([2]; […]): 1(3.4) n (%)
- dyspepsia ([2]; […]): 1(3.4) n (%)
- dyspnea ([2]; […]): 1(3.4) n (%)
- elevated blood creatine phosphokinase ([2]; […]): 1(3.4) n (%)
- elevated blood unconjugated bilirubin ([2]; […]): 1(3.4) n (%)
- epigastric pain ([2]; […]): 1(3.4) n (%)
- epistaxis ([2]; […]): 2(6.9) n (%)
- extraventricular contraction ([2]; […]): 1(3.4) n (%)
- eye organ disease (SOC) ([2]; […]): 2(6.9) n (%)
- eyelid edema ([2]; […]): 1(3.4) n (%)
- facial pain ([2]; […]): 1(3.4) n (%)
- fatigue ([2]; […]): 3(10.3) n (%)
- fever ([2]; […]): 2(6.9) n (%)
- fungal skin infection ([2]; […]): 1(3.4) n (%)
- gastritis ([2]; […]): 1(3.4) n (%)
- gastroesophageal reflux disease ([2]; […]): 2(6.9) n (%)
- gastrointestinal hemorrhage ([2]; […]): 1(3.4) n (%)
- gastrointestinal system diseases (SOC) ([2]; […]): 21(72.4) n (%)
- head discomfort ([2]; […]): 1(3.4) n (%)
- headache ([2]; […]): 14(48.3) n (%)
- heart organ diseases (SOC) ([2]; […]): 13(44.8) n (%)
- heat and cold intolerance ([2]; […]): 1(3.4) n (%)
- hematochezia ([2]; […]): 1(3.4) n (%)
- hematuria ([2]; […]): 4(13.8) n (%)
- hepatic failure ([2]; […]): 2(6.9) n (%)
- hepato-biliary diseases (SOC) ([2]; […]): 3(10.3) n (%)
- herpes zoster ([2]; […]): 4(13.8) n (%)
- herpesvirus infection ([2]; […]): 1(3.4) n (%)
- high voltage on ECG ([2]; […]): 3(10.3) n (%)
- hypercalcemia ([2]; […]): 1(3.4) n (%)
- hyperglycemia ([2]; […]): 7(24.1) n (%)
- hyperlipoidemia ([2]; […]): 4(13.8) n (%)
- hypermagnesemia ([2]; […]): 3(10.3) n (%)
- hypertension ([2]; […]): 2(6.9) n (%)
- hypertriglyceridemia ([2]; […]): 2(6.9) n (%)
- hyperuricemia ([2]; […]): 4(13.8) n (%)
- hypoalbuminemia ([2]; […]): 1(3.4) n (%)
- hypocalcemia ([2]; […]): 7(24.1) n (%)
- hypochloremia ([2]; […]): 4(13.8) n (%)
- hypokalemia ([2]; […]): 11(37.9) n (%)
- hypomagnesemia ([2]; […]): 4(13.8) n (%)
- hyponatremia ([2]; […]): 10(34.5) n (%)
- hypophosphatemia ([2]; […]): 13(44.8) n (%)
- hypotension ([2]; […]): 2(6.9) n (%)
- increased blood creatinine ([2]; […]): 2(6.9) n (%)
- increased lymphocyte count ([2]; […]): 1(3.4) n (%)
- increased monocyte count ([2]; […]): 13(44.8) n (%)
- increased serum bilirubin ([2]; […]): 4(13.8) n (%)
- increased total bile acid ([2]; […]): 1(3.4) n (%)
- increased troponin ([2]; […]): 1(3.4) n (%)
- increased urobilinogen in the urine ([2]; […]): 3(10.3) n (%)
- increased γ-glutamyl transferase ([2]; […]): 2(6.9) n (%)
- infections and infestations diseases (SOC) ([2]; […]): 13(44.8) n (%)
- infectious pneumonia ([2]; […]): 1(3.4) n (%)
- insomnia ([2]; […]): 1(3.4) n (%)
- kidney and urinary system diseases (SOC) ([2]; […]): 6(20.7) n (%)
- left ventricular dysfunction ([2]; […]): 1(3.4) n (%)
- limb pain ([2]; […]): 2(6.9) n (%)
- loss of appetite ([2]; […]): 2(6.9) n (%)
- mental disorder (SOC) ([2]; […]): 1(3.4) n (%)
- metabolic and nutritional diseases (SOC) ([2]; […]): 23(79.3) n (%)
- muscle weakness ([2]; […]): 1(3.4) n (%)
- musculoskeletal discomfort ([2]; […]): 1(3.4) n (%)
- nasal congestion ([2]; […]): 1(3.4) n (%)
- nausea ([2]; […]): 15(51.7) n (%)
- oral hypoesthesia ([2]; […]): 2(6.9) n (%)
- oral mucositis ([2]; […]): 1(3.4) n (%)
- palpitation ([2]; […]): 4(13.8) n (%)
- parageusia ([2]; […]): 1(3.4) n (%)
- pericardial effusion ([2]; […]): 1(3.4) n (%)
- periodontitis ([2]; […]): 1(3.4) n (%)
- peripheral edema ([2]; […]): 1(3.4) n (%)
- petechia ([2]; […]): 2(6.9) n (%)
- proteinuria ([2]; […]): 1(3.4) n (%)
- pruritus ([2]; […]): 3(10.3) n (%)
- pulmonary inflammation ([2]; […]): 1(3.4) n (%)
- rash ([2]; […]): 3(10.3) n (%)
- reduced intake ([2]; […]): 10(34.5) n (%)
- renal failure ([2]; […]): 1(3.4) n (%)
- respiratory tract infection ([2]; […]): 1(3.4) n (%)
- right bundle branch block ([2]; […]): 1(3.4) n (%)
- sinus bradycardia ([2]; […]): 1(3.4) n (%)
- sinus tachycardia ([2]; […]): 7(24.1) n (%)
- skin and subcutaneous tissue diseases (SOC) ([2]; […]): 10(34.5) n (%)
- skin pain ([2]; […]): 1(3.4) n (%)
- skin xerosis ([2]; […]): 2(6.9) n (%)
- soft tissue infection ([2]; […]): 1(3.4) n (%)
- supraventricular extraventricular contraction ([2]; […]): 2(6.9) n (%)
- systemic diseases and various reactions at the administration site (SOC) ([2]; […]): 19(65.5) n (%)
- tachypnea ([2]; […]): 3(10.3) n (%)
- tongue ulcer ([2]; […]): 1(3.4) n (%)
- upper respiratory tract bacterial infection ([2]; […]): 1(3.4) n (%)
- upper respiratory tract infection ([2]; […]): 3(10.3) n (%)
- urinary tract infection ([2]; […]): 3(10.3) n (%)
- urine protein detection ([2]; […]): 4(13.8) n (%)
- various musculoskeletal and connective tissue diseases (SOC) ([2]; […]): 7(24.1) n (%)
- various neurological diseases (SOC) ([2]; […]): 19(65.5) n (%)
- vascular and lymphatic diseases (SOC) ([2]; […]): 3(10.3) n (%)
- ventricular hypokinesia ([2]; […]): 1(3.4) n (%)
- vesicular rash ([2]; […]): 1(3.4) n (%)
- vomit ([2]; […]): 15(51.7) n (%)
- weakness ([2]; […]): 14(48.3) n (%)
- ST segment abnormalities on ECG ([2]; […], second line of this term): 1(3.4) n (%)
- hypermagnesemia ([2]; […], second line of this term): 2(6.9) n (%)
- Grade ≥3 lymphopenia ([2]; all doses, N = 29): 31.0%
- Grade ≥3 thrombocytopenia ([2]; all doses, N = 29): 75.9%
